Measured values as given in ChEMBL document CHEMBL1201862, “PubChem BioAssay data set” (2004).
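The compound was tested at five concentrations on cells cultured in 96-well plates, with a 48-hour exposure period. Abbreviation: GI50, concentration required for 50% inhibition of growth.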 Activity calls are given as the source filed them. No stated cut-off is given here; in the data, active = GI50 up to about 1.1 µM and inactive = higher.

Legend:
Assay in all cases: growth of human tumour cells (NCI), 48 h
[1] = system: A498
[2] = system: ACHN
[3] = system: BT-549
[4] = system: HOP-62
[5] = system: K562
[6] = system: KM12
[7] = system: M14
[8] = system: MDA-MB-231
[9] = system: MDA-N
[10] = system: NCI-H522
[11] = system: NCI/ADR-RES
[12] = system: OVCAR-3
[13] = system: OVCAR-8
[14] = system: RXF 393
[15] = system: SF-268
[16] = system: SF-295
[17] = system: SK-MEL-2
[18] = system: SK-MEL-5
[19] = system: T47D

Measured: GI50

CN(Cc1cc(Br)cc(Br)c1O)Cc1c(O)ccc2ccccc12
inactive: [1] 20 µM | [2] 22.7 µM | [3] 22.4 µM | [4] 18.7 µM | [5] 19.8 µM | [6] 17.2 µM | [7] 17.2 µM | [8] 16.7 µM | [9] 16.3 µM | [10] 26.7 µM | [11] 34.6 µM | [12] 15.2 µM | [13] 23.8 µM | [14] 19.4 µM | [15] 24.9 µM | [16] 21.5 µM | [17] 17.8 µM | [18] 17.4 µM | [19] 21.9 µM

c1cncc(CNCCN2CCNCC2)c1
inactive: [1] > 100 µM | [2] > 100 µM | [3] > 100 µM | [4] > 100 µM | [5] > 100 µM | [6] > 100 µM | [7] > 100 µM | [8] > 100 µM | [9] > 100 µM | [10] > 100 µM | [11] > 100 µM | [12] > 100 µM | [13] > 100 µM | [14] > 100 µM | [15] > 100 µM | [16] > 100 µM | [17] > 100 µM | [18] > 100 µM | [19] > 100 µM

Cn1c(=O)oc2cc(C(=O)CSC(=S)N3CCCCCC3)ccc21
inactive: [1] 6.93 µM | [2] > 100 µM | [3] > 100 µM | [4] 61.1 µM | [5] 57.1 µM | [6] 49.8 µM | [7] > 100 µM | [8] > 100 µM | [9] > 100 µM | [10] > 100 µM | [11] 54.2 µM | [12] > 100 µM | [13] > 100 µM | [14] > 100 µM | [15] > 100 µM | [16] 87.9 µM | [17] > 100 µM | [18] > 100 µM | [19] 86.7 µM

Cc1nc2ccccc2n1Cc1nnc(-c2ccccc2)o1
inactive: [1] > 100 µM | [2] > 100 µM | [3] > 100 µM | [4] > 100 µM | [5] 33.9 µM | [6] 20.6 µM | [7] > 100 µM | [8] > 100 µM | [9] 70.3 µM | [10] > 100 µM | [11] > 100 µM | [12] > 100 µM | [13] > 100 µM | [14] 35.9 µM | [15] > 100 µM | [16] > 100 µM | [17] > 100 µM | [18] 55 µM | [19] 57.8 µM
